Measurements: ChEMBL document CHEMBL1146005, “Estrogen receptor beta-subtype selective tetrahydrofluorenones: use of a fused pyrazole as a phenol bioisostere” (Bioorg Med Chem Lett, 2006)

What was measured:
Estrogen receptor [1] = target: T1, Estrogen receptor (Homo sapiens, UniProt P03372)
T1 sequence (P03372 whole entry): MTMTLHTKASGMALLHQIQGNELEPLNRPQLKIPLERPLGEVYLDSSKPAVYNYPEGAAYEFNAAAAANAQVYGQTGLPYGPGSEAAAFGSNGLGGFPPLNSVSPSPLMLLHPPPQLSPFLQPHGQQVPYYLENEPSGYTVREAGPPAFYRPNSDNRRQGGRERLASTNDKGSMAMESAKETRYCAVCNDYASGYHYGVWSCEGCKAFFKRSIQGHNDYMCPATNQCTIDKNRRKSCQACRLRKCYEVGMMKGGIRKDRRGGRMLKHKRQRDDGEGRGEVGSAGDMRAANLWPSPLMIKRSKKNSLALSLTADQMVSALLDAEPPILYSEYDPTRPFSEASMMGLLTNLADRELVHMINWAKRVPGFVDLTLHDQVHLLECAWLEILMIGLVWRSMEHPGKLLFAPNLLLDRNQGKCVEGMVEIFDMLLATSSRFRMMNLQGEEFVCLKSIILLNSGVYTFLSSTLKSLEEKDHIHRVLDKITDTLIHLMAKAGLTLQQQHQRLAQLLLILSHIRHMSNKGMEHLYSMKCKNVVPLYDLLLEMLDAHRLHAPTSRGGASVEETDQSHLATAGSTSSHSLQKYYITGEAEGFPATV
Description: Binding affinity to human ERalpha

[2] = AUC in Sprague-Dawley rat at 1 mg/kg, iv; assay type: ADME, organism-based; set-up: dose 1 mg/kg, route intravenous; details: plasma
[3] = Clearance in Sprague-Dawley rat at 1 mg/kg, iv and 2 mg/kg, po; assay type: ADME, organism-based; details: in vivo
Estrogen receptor beta [4] = target: T2, Estrogen receptor beta (Homo sapiens, UniProt Q92731)
Description: Binding affinity to human ERbeta

Estrogen receptor [5] = target: T1, Estrogen receptor; remark: listed apart in the source
Description: Agonist activity at human ERalpha transfected in HEK293 cells assessed as transactivation of alkaline phosphatase reporter gene

[6] = Oral bioavailability in Sprague-Dawley rat at 1 mg/kg, iv and 2 mg/kg, po; assay type: ADME, organism-based; details: in vivo
[7] = Half life in Sprague-Dawley rat at 1 mg/kg, iv and 2 mg/kg, po; assay type: ADME, organism-based; details: in vivo
Estrogen receptor beta [8] = target: T2, Estrogen receptor beta; remark: listed apart in the source
Description: Agonist activity at human ERbeta transfected in HEK293 cells assessed as transactivation of alkaline phosphatase reporter gene

T2 sequence (Q92731 whole entry): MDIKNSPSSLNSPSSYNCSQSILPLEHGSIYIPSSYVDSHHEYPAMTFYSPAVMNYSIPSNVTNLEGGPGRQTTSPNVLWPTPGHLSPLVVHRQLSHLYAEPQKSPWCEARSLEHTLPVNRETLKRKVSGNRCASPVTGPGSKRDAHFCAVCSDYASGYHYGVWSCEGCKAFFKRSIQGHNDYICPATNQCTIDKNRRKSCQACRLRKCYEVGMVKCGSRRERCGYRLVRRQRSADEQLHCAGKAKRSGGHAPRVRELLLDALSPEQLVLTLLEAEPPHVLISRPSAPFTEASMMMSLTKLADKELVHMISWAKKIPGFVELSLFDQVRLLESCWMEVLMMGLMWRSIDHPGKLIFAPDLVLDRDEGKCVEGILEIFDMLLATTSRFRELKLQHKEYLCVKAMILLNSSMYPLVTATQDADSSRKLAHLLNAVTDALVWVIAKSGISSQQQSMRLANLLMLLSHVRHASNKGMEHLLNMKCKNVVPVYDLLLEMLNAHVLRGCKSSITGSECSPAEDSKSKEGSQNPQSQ

Structure (SMILES) | IC50 (Estrogen receptor [1]) [nM] | AUC [2] [µM·h] | clearance [3] [mL/min/kg] | IC50 (Estrogen receptor beta [4]) [nM] | EC50 (Estrogen receptor [5]) [nM] | bioavailability [6] [%] | half-life [7] [h] | EC50 (Estrogen receptor beta [8]) [nM]
CC[C@@]12CCC(=O)C(C(F)(F)F)=C1c1ccc3[nH]ncc3c1C2 | 360 | 1.5 | 36 | 2.8 | 50 | 74 | 0.7 | 0.6
CC[C@@]12CCC(=O)C(C3CC3)=C1c1ccc3[nH]ncc3c1C2 | 470 | 1 | 58 | 7.7 | > 1000 | 55 | 0.9 | 5.8
CC[C@@]12CCC(=O)C(C)=C1c1ccc3[nH]ncc3c1C2 | 1360 | 1.5 | 44 | 7.2 | 104 | 51 | 1.1 | 2.1
CC[C@@]12CCC(=O)C(c3ccccc3)=C1c1ccc3[nH]ncc3c1C2 | 46 | – | – | 1.4 | 72 | – | – | 0.8
O=C1CC[C@@]2(CC3CC3)Cc3c(ccc4[nH]ncc34)C2=C1Br | 230 | – | – | 4 | – | – | – | –
O=C1CC[C@@]2(CCC3CC3)Cc3c(ccc4[nH]ncc34)C2=C1Br | 229 | 0.8 | 55 | 1.6 | 61 | 51 | 1.2 | 0.9
CCCC[C@@]12CCC(=O)C(CC)=C1c1ccc3[nH]ncc3c1C2 | 93 | – | – | 1.1 | – | – | – | –
CC[C@@]12CCC(=O)C(Cl)=C1c1ccc3[nH]nc(F)c3c1C2 | 82 | – | – | 1.1 | – | – | – | –
CCCC[C@@]12CCC(=O)C(CC)=C1c1ccc3[nH]nc(F)c3c1C2 | 23 | – | – | 0.3 | – | – | – | –
CC[C@@]12CCC(=O)C(Br)=C1c1ccc3[nH]ncc3c1C2 | 249 | 0.7 | 74 | 2.2 | 65 | 64 | 0.7 | 0.7
CC[C@@]12CCC(=O)C(C(F)(F)F)=C1c1ccc3[nH]ncc3c1C2=O | 58 | 3.2 | 15 | 1.5 | 10.4 | 62 | 1.2 | 0.4
CC[C@@]12CCC(=O)C(Cl)=C1c1ccc3[nH]ncc3c1C2=O | 139 | – | – | 4.1 | – | – | – | –
CCCC[C@@]12CCC(=O)C(C(F)(F)F)=C1c1ccc3[nH]ncc3c1C2 | 176 | 0.9 | 64 | 0.8 | – | 25 | 0.9 | –
CCCC[C@@]12CCC(=O)C(C(=O)OC)=C1c1ccc3[nH]ncc3c1C2 | 2080 | – | – | 5.2 | – | – | – | –
C[C@@]12CCC(=O)C(C(F)(F)F)=C1c1ccc3[nH]ncc3c1C2 | 1480 | – | – | 8 | – | – | – | –
CC[C@]12CCC(=O)C(C)=C1c1ccc3[nH]ncc3c1C2 | > 10000 | 2 | 31 | 4460 | 1100 | 44 | 0.8 | 935
CCCC[C@@]12CCC(=O)C(C(F)(F)F)=C1c1ccc3[nH]nc(F)c3c1C2 | 49.2 | – | – | 1 | – | – | – | –
CC[C@@]12CCC(=O)C(C(F)(F)F)=C1c1ccc3[nH]nc(F)c3c1C2 | 50.9 | 1.2 | 42 | 0.3 | 8.3 | 27 | 1.9 | 0.2
CC[C@@]12CCC(=O)C(Cl)=C1c1ccc3[nH]ncc3c1C2 | 470 | 0.9 | 72 | 7.7 | 152 | 47 | 0.5 | 1.5

Structure (SMILES) | IC50 (Estrogen receptor [1]) [nM] | AUC [2] [µM·h] | clearance [3] [mL/min/kg] | IC50 (Estrogen receptor beta [4]) [nM] | EC50 (Estrogen receptor [5]) [nM] | bioavailability [6] [%] | half-life [7] [h] | EC50 (Estrogen receptor beta [8]) [nM]
CCCC[C@@]12CCC(=O)C(C(F)(F)F)=C1c1ccc3[nH]ncc3c1C2=O | 40 | 0.7 | 69 | 0.9 | – | 21 | 1.8 | –
CCC12CCC(=O)C(C(=O)OC)=C1c1ccc3[nH]ncc3c1C2 (racemic) | > 10000 | – | – | 207 | 1170 | – | – | 210
CCCCC12CCC(=O)C(C)=C1c1ccc3[nH]ncc3c1C2 (racemic) | 1050 | – | – | 12 | – | – | – | –
CCCCC12CCC(=O)C(Br)=C1c1ccc(O)cc1C2 (racemic) | – | 0.5 | 102 | – | – | 0 | 1.5 | –
CCC12CCC(=O)C(C)=C1c1ccc3[nH]nc(Cl)c3c1C2 (racemic) | 2420 | – | – | 42.5 | – | – | – | –
CCC12CCC(=O)C(Br)=C1c1ccc3[nH]nc(F)c3c1C2 (racemic) | 197 | – | – | 1.6 | 33.1 | – | – | 0.8
CCC1=C2c3ccc4[nH]ncc4c3CC2(CC)CCC1=O (racemic) | 223 | – | – | 4 | 59 | – | – | 1.7
CCCCC12CCC(=O)C(Br)=C1c1ccc3[nH]ncc3c1C2 (racemic) | 1410 | – | – | 4.9 | – | – | – | –
CC1=C2c3ccc4[nH]ncc4c3CC2(C)CCC1=O (racemic) | 4410 | – | – | 69 | – | – | – | –
CCCC12CCC(=O)C(C)=C1c1ccc3[nH]ncc3c1C2 (racemic) | 976 | – | – | 12.6 | – | – | – | –
CCC12CCC(=O)C=C1c1ccc3[nH]ncc3c1C2 (racemic) | > 10000 | – | – | 618 | > 1000 | – | – | 76
CC12CCC(=O)C(Br)=C1c1ccc3[nH]ncc3c1C2 (racemic) | 1990 | – | – | 26 | – | – | – | –
CCCCC12CCC(=O)C(C3CC3)=C1c1ccc3[nH]ncc3c1C2 (racemic) | 422 | – | – | 7 | – | – | – | –
CCC12CCC(=O)C(C)=C1c1ccc3[nH]nc(Br)c3c1C2 (racemic) | 5880 | – | – | 103 | – | – | – | –
CCC12CCC(=O)C(C)=C1c1ccc3[nH]ncc3c1C2=O (racemic) | 624 | – | – | 31.8 | – | – | – | –
CCC12CCC(=O)C(Br)=C1c1ccc3[nH]ncc3c1C2=O (racemic) | 352 | – | – | 8 | 49 | – | – | 1.5
CCCC12CCC(=O)C(Br)=C1c1ccc3[nH]ncc3c1C2 (racemic) | 663 | – | – | 5.4 | – | – | – | –
CCCCC12CCC(=O)C=C1c1ccc3[nH]ncc3c1C2 (racemic) | > 10000 | – | – | 283 | – | – | – | –
